US20090275574A1, “NOVEL COMPOUNDS-300” (ASTRAZENECA AB, priority 2008, published 2009)

These compounds were tested against T1, hM3 (human Muscarinic receptor subtype 3) (Homo sapiens, UniProt P20309) (assay: Human M3 calcium mobilization FLIPR assay). Conditions: hM3 expressed in CHO cells, intracellular Ca2+ release (FLIPR).
T1 construct: expressed in transfected cells; host or cells: CHO cells (ATCC)
Assay type: cell-based
Method: Human M1, rat M1, Human M3 and Human M5 Calcium Mobilization FLIPR™ Assay The compound activity in the present invention (EC50 or IC50) is measured using a 384 plate-based imaging assay that monitors drug induced intracellular Ca^2+ release in whole cells. Activation of hM1 (human Muscarinic receptor subtype 1, gene bank access NM_000738), rM1 (rat Muscarinic receptor subtype 1, gene bank access NM_080773), hM3 (human Muscarinic receptor subtype 3, gene bank access NM_000740NM_000740) and hM5 (human Muscarinic receptor subtype 5, gene bank access NM_0121258), receptors expressed in CHO cells (Chinese hamster ovary cells, ATCC) is quantified in a Molecular Devices FLIPR IITM instrument as an increase in fluorescent signal. Inhibition of hM3 and hM5 by compounds is determined by the decrease in fluorescent signal in response to 2 nM acetylcholine activation. […] Prior to experiment, the cell culture medium is removed from the plates by inversion. […] Plates are incubated at 37° C. for 60 minutes prior to start the experiment. The incubation is terminated by washing the cells four times in assay buffer, leaving a residual 25 μl buffer per well. Cell plates are then transferred to the FLIPR, ready for compound additions. The day of experiment, acetylcholine and compounds are diluted in assay buffer in three-fold concentration range (10 points serial dilution) for addition by FLIPR instrument. For all calcium assays, a baseline reading is taken for 10 seconds followed by the addition of 12.5 μl of compounds, resulting in a total well volume of 37.5 μl. Data is collected every second for 60 pictures and then every 6 seconds for 20 pictures prior to the addition of agonist. For hM3 and hM5, before agonist addition, a second baseline reading is taken for 10 seconds followed by the addition of 12.5 μl of agonist or buffer, producing a final volume of 50 μl. After agonist stimulation, the FLIPR continues to collect data every second for 60 pictures and then every 6 seconds for 20 pictures. The fluorescence emission is read using filter 1 (emission 510-570 nm) by the FLIPR on board CCD camera. Calcium mobilization output data are calculated as the maximal relative fluorescence unit (RFU) minus the minimal value for both compound and agonist reading frame (except for hM1 and rM1 using only the maximal RFU). Data are analyzed using sigmoidal fits of a non-linear curve-fitting program (XLfit version 4.2.2 Excel add-in version 4.2.2 build 18 math 1Q version 2.1.2 build 18). All pEC50 and pIC50 values are reported as arithmetic means±standard error of mean of ‘n’ independent experiments.

T1 sequence (P20309 whole entry): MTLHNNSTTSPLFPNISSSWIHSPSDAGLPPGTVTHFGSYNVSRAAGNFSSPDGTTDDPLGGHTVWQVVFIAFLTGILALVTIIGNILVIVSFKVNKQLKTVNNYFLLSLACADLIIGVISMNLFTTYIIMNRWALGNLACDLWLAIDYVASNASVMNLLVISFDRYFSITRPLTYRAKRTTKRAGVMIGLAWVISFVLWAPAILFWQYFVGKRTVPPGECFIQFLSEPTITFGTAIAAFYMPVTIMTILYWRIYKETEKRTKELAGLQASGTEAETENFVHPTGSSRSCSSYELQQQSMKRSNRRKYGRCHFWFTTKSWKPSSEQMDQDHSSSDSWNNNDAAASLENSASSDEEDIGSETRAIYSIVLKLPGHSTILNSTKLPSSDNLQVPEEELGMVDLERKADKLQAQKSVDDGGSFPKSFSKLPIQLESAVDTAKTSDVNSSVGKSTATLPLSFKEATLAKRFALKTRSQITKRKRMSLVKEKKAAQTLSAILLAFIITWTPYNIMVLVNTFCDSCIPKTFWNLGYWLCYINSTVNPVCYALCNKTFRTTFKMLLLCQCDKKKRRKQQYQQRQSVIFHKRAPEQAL

First: CCOCC1CCC(N2CCC(N3C(=O)NC[C@H]4CCCC[C@@H]43)CC2)CC1 (mixture of isomers) [Example 08, (4aR,8aS)-1-(1-(4-(ethoxymethyl)cyclohexyl)piperidin-4-yl)octahydroquinazolin-2(1H)-one]
Second: CCCOCC1CCC(N2CCC(N3C(=O)NC[C@H]4CCCC[C@@H]43)CC2)CC1 (single isomer, unassigned) [Example 01]
The EC50 of the first is lower: 1.1 µM for the first, > 40 µM for the second.

`CC(C)OCC1CCC(N2CCC(N3C(=O)CO[C@H]4CCCC[C@@H]43)CC2)CC1` (mixture of isomers) [Example 15, (4aS,8aS)-4-(1-(4-(isopropoxymethyl)cyclohexyl)piperidin-4-yl)hexahydro-2H-benzo[b][1,4]oxazin-3(4H)-one] and `CCOCC1CCC(N2CCC(N3C(=O)CO[C@H]4CCCC[C@@H]43)CC2)CC1` (single isomer, unassigned) [Example 13] cannot be ordered by EC50: > 40 µM for the first, > 40 µM for the second.

Going from `CCCOCC1CCC(N2CCC(N3C(=O)NC[C@H]4CCCC[C@@H]43)CC2)CC1` (single isomer, unassigned) [Example 02] to `O=C1NC[C@H]2CCCC[C@@H]2N1C1CCN(C2CCC(COCC(F)F)CC2)CC1` (single isomer, unassigned) [Example 51], the EC50 rises from 1.6 µM to > 40 µM.

Going from `CC(C)OCC1CCC(N2CCC(N3C(=O)NC[C@H]4CCCC[C@@H]43)CC2)CC1` (single isomer, unassigned) [Example 04] to `CC(C)OCC1CCC(N2CCC(N3C(=O)CO[C@H]4CCCC[C@@H]43)CC2)CC1` (single isomer, unassigned) [Example 18], the EC50 rises from 5.1 µM to > 40 µM.

`CCOCC1CCC(N2CCC(N3C(=O)CO[C@H]4CCCC[C@@H]43)CC2)CC1` (single isomer, unassigned) [Example 14] and `CCOCC1CCC(N2CCC(N3C(=O)CO[C@H]4CCCC[C@@H]43)CC2)C1` (single isomer, unassigned) [Example 44] cannot be ordered by EC50: > 40 µM for the first, > 10 µM for the second.

`CC(C)OCC1CCC(N2CCC(N3C(=O)CO[C@H]4CCCC[C@@H]43)CC2)CC1` (single isomer, unassigned) [Example 19] and `O=C1CO[C@H]2CCCC[C@@H]2N1C1CCN(C2CCC(COCC(F)F)CC2)CC1` (single isomer, unassigned) [Example 26] cannot be ordered by EC50: > 40 µM for the first, > 40 µM for the second.

`O=C1CO[C@H]2CCCC[C@@H]2N1C1CCN(C2CCC(COCCF)CC2)CC1` (single isomer, unassigned) [Example 24] and `O=C1CO[C@H]2CCCC[C@@H]2N1C1CCN(C2CCC(COCC(F)F)CC2)CC1` (single isomer, unassigned) [Example 27] cannot be ordered by EC50: > 40 µM for the first, > 40 µM for the second.

`O=C1CO[C@H]2CCCC[C@@H]2N1C1CCN(C2CCC(COCCF)CC2)CC1` (single isomer, unassigned) [Example 25] and `O=C1COC2CCCC2N1C1CCN([C@H]2CC[C@@H](COCC3CC3)CC2)CC1` (single isomer, unassigned) [Example 48] cannot be ordered by EC50: > 40 µM for the first, > 40 µM for the second.

`CC(C)OCC1CCC(N2CCC(N3C(=O)CO[C@H]4CCC(F)(F)C[C@@H]43)CC2)CC1` (single isomer, unassigned) [Example 37] and `CCOCC1CCC(N2CCC(N3C(=O)CO[C@H]4CCCC[C@@H]43)CC2)C1` (single isomer, unassigned) [Example 45] cannot be ordered by EC50: > 40 µM for the first, > 40 µM for the second.

`CC(C)OCC1CCC(N2CCC(N3C(=O)CO[C@H]4CCC(F)(F)C[C@@H]43)CC2)CC1` (single isomer, unassigned) [Example 38] and `CCOC[C@H]1CC[C@@H](N2CCC(N3C(=O)CO[C@H]4CCCC[C@@H]43)CC2)C1` [Example 42, (4aS,8aS)-4-(1-((1R,3S)-3-(ethoxymethyl)cyclopentyl)piperidin-4-yl)hexahydro-2H-benzo[b][1,4]oxazin-3(4H)-one] cannot be ordered by EC50: > 40 µM for the first, > 2.1 µM for the second.

`CCOCC1CC(N2CCC(N3C(=O)CO[C@H]4CCCC[C@@H]43)CC2)C1` (single isomer, unassigned) [Example 39] and `CCOC[C@@H]1CC[C@H](N2CCC(N3C(=O)CO[C@H]4CCCC[C@@H]43)CC2)C1` [Example 43, (4aS,8aS)-4-(1-((1S,3R)-3-(ethoxymethyl)cyclopentyl)piperidin-4-yl)hexahydro-2H-benzo[b][1,4]oxazin-3(4H)-one] cannot be ordered by EC50: > 40 µM for the first, > 40 µM for the second.
